Laboratory results from patent US9434763B2, “Derivatives of pyridinone as inhibitors for tissue transglutaminase” (ZEDIRA GMBH, priority 2012, dated 2016).

Experiments:
Type in all cases: biochemical
Details in all cases: casein as substrate
TG3 (transglutaminase 3) = target: T1, TG3 (transglutaminase 3) (Homo sapiens, UniProt Q08188); experiment: Comparative transglutaminase selectivity assay with casein and dansylcadaverine as substrates: TG3
T1 construct: purchased Zedira T012
T1 sequence (Q08188 1-693): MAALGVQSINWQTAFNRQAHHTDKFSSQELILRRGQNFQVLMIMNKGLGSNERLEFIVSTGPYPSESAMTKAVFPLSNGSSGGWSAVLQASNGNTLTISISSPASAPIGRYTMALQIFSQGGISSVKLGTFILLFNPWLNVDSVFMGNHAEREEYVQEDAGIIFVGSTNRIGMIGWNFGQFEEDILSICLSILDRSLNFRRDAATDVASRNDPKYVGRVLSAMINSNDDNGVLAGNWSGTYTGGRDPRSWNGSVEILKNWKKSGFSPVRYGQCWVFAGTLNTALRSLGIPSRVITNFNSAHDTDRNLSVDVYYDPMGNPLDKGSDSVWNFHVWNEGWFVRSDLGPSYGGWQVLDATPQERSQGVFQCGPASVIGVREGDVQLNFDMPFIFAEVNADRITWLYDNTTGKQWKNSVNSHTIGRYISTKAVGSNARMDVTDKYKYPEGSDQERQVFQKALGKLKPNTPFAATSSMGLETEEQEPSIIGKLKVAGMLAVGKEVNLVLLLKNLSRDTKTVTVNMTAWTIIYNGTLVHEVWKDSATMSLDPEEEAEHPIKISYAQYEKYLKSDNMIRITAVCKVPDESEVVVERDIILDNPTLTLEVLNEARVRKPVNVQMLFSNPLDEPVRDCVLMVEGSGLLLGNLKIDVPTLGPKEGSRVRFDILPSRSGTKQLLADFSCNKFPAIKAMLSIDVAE
Description: (§1) The comparative determination of different transglutaminases to determine the selectivity was made with casein and dansylcadaverine as substrates. Therefore, the kit T036 (Zedira, Darmstadt; Refs: Lorand et al, Anal Biochem, 1971, 44:221-31) as well as transglutaminase products T009 (transglutaminase 1), T012 (transglutaminase 3), T021 (transglutaminase 6) and T027 (plasma transglutaminase, factor XIII) are used. Therefore, two different IC50 values for the compounds are given.
(§2) The evaluation of the resulting enzyme activity is done using the slope of the straight line obtained by the increase in fluorescence.
(§3) To determine the non-inhibited enzyme activity, DMSO instead of inhibitor stock solution is used. IC50 values are determined by plotting the resulting enzyme activity against the logarithm of the inhibitor concentration. IC50 is defined as the concentration of inhibitor resulting in 50% of enzyme activity.
(§4) It should be noted that it was measured here against casein as substrate, which is why other apparent inhibition values (IC50 value) result.

TG1 (transglutaminase 1) = target: T2, TG1 (transglutaminase 1) (Homo sapiens, UniProt P22735); experiment: Comparative transglutaminase selectivity assay with casein and dansylcadaverine as substrates: TG1
T2 construct: purchased Zedira T009
T2 sequence (P22735 1-817): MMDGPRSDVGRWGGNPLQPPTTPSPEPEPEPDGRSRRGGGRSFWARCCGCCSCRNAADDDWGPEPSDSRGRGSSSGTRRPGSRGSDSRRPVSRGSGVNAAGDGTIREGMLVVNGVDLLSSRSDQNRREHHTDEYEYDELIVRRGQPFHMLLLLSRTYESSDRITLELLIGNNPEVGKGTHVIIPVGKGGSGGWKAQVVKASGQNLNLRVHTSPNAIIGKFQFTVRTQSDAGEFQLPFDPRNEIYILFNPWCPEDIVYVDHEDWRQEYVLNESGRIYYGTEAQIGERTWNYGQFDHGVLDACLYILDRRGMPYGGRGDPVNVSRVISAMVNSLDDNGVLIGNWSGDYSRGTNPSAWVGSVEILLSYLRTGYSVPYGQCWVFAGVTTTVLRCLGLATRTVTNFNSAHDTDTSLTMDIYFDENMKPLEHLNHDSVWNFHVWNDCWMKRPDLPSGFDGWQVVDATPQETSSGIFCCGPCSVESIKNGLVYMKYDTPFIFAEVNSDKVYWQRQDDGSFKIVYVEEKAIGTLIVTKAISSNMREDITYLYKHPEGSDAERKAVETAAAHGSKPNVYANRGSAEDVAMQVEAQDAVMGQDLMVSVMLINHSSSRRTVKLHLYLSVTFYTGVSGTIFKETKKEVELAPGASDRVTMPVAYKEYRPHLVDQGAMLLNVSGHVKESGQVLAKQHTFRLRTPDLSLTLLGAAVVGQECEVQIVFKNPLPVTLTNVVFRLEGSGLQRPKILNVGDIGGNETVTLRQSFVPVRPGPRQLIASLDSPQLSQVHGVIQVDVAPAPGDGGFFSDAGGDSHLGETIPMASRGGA
Description: as §1, §2, §3, §4

[1] = target: T3, FXIII (plasma transglutaminase, factor XIII) (Homo sapiens, UniProt P00488); experiment: Comparative transglutaminase selectivity assay with casein and dansylcadaverine as substrates: FXIII
T3 construct: purchased Zedira T027
T3 sequence (P00488 1-732): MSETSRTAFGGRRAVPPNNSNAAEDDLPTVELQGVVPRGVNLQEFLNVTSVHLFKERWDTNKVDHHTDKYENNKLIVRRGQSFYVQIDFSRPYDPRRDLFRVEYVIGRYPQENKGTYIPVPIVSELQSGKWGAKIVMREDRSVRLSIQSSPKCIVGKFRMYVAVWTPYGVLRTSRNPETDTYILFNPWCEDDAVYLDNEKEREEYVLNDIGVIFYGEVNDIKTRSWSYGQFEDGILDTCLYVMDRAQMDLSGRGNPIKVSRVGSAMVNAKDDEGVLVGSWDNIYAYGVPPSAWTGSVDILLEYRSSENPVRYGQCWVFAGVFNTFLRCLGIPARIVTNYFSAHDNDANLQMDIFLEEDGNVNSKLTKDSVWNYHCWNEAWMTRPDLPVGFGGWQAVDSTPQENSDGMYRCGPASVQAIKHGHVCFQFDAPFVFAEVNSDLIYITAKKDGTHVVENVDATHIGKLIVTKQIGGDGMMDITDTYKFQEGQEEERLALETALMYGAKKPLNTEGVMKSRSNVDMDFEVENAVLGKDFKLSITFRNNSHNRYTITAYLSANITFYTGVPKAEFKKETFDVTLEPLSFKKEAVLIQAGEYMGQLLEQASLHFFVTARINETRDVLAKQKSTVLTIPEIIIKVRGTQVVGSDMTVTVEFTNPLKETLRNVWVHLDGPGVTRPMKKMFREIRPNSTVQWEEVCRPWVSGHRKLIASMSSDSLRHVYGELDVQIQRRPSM
Description: as §1, §2, §3, §4

| IC50 (TG3 (transglutaminase 3)) [µM] | IC50 (TG1 (transglutaminase 1)) [µM] | IC50 [1] [µM] | SMILES |
| --- | --- | --- | --- |
| 128 | 96 | 81.1 | CCOC(=O)/C=C/CC[C@H](NC(=O)c1cncn1C)C(=O)Nc1cccn(CC(=O)NCCC(C)C)c1=O [A19, (S,E)-Ethyl 7-(1-(2-(isopentylamino)-2-oxoethyl)-2-oxo-1,2-dihydropyridin-3-ylamino)-6-(1-methyl-1H-imidazole-5-carboxamido)-7-oxohept-2-enoate] |
| 104 | 86 | 109 | CCOC(=O)/C=C/CC[C@H](NC(C)=O)C(=O)Nc1cccn(CC(=O)NCCC(CC)CC)c1=O [A42, (S,E)-ethyl 6-acetamido-7-(1-(2-(3-ethylpentylamino)-2-oxoethyl)-2-oxo-1,2-dihydropyridin-3-ylamino)-7-oxohept-2-enoate] |
| 109 | 97.5 | 120 | CCOC(=O)/C=C/CC[C@H](NC(=O)c1cncn1C)C(=O)Nc1cccn(CC(=O)NCC(CC)CC)c1=O [A58, (S,E)-Ethyl 7-(1-(2-(2-ethylbutylamino)-2-oxoethyl)-2-oxo-1,2-dihydropyridin-3-ylamino)-6-(1-methyl-1H-imidazole-5-carboxamido)-7-oxohept-2-enoate] |
| 70.9 | 28.1 | 67.4 | COC(=O)/C=C/CC[C@H](NC(C)=O)C(=O)Nc1cccn(CC(=O)NCCC(C)C)c1=O [A29, (S,E)-methyl 6-acetamido-7-(1-(2-(isopentylamino)-2-oxoethyl)-2-oxo-1,2-dihydropyridin-3-ylamino)-7-oxohept-2-enoate] |
| 84.1 | 28.8 | 105 | CCOC(=O)/C=C/CC[C@H](NC(C)=O)C(=O)Nc1cccn(CC(=O)NCCC(C)C)c1=O [A7, (S,E)-Ethyl 6-acetamido-7-(1-(2-(isopentylamino)-2-oxoethyl)-2-oxo-1,2-dihydropyridin-3-ylamino)-7-oxohept-2-enoate] |
| 99.7 | 133 | 122 | CCOC(=O)/C=C/CC[C@H](NC(C)=O)C(=O)Nc1cccn(CC(=O)NCC(CC)CC)c1=O [A62, (S,E)-Ethyl 6-acetamido-7-(1-(2-(2-ethylbutylamino)-2-oxoethyl)-2-oxo-1,2-dihydropyridin-3-ylamino)-7-oxohept-2-enoate] |
| 59.6 | 80.7 | 78.2 | CCC(CC)CNC(=O)Cn1cccc(NC(=O)[C@H](CC/C=C/C(=O)OC)NC(C)=O)c1=O [A79, (S,E)-Methyl 6-acetamido-7-(1-(2-(2-ethylbutylamino)-2-oxoethyl)-2-oxo-1,2-dihydropyridin-3-ylamino)-7-oxohept-2-enoate] |
| 119 | 91.9 | 133 | CCOC(=O)/C=C/CC[C@H](NC(=O)CCC(=O)O)C(=O)Nc1cccn(CC(=O)NCCC(C)C)c1=O [A24, (S,E)-4-(7-Ethoxy-1-(1-(2-(isopentylamino)-2-oxoethyl)-2-oxo-1,2-dihydropyridin-3-ylamino)-1,7-dioxohept-5-en-2-ylamino)-4-oxobutanoic acid] |

Second part, the compound before the results:

| SMILES | IC50 (TG3 (transglutaminase 3)) [µM] | IC50 (TG1 (transglutaminase 1)) [µM] | IC50 [1] [µM] |
| --- | --- | --- | --- |
| COC(=O)/C=C/CC[C@H](NC(C)=O)C(=O)Nc1cccn(CC(=O)N2CCC(C(F)(F)F)CC2)c1=O [A65, (S,E)-Methyl 6-acetamido-7-oxo-7-(2-oxo-1-(2-oxo-2-(4-(trifluoromethyl)piperidin-1-yl)ethyl)-1,2-dihydropyridin-3-ylamino)hept-2-enoate] | 100 | 120 | 156 |
| CCOC(=O)/C=C/CC[C@H](NC(=O)c1ccccc1)C(=O)Nc1cccn(CC(=O)N[C@H](C(=O)O)[C@H](C)CC)c1=O [A59, (2S,3R)-2-(2-(3-((S,E)-2-Benzamido-7-ethoxy-7-oxohept-5-enamido)-2-oxopyridin-1(2H)-yl)acetamido)-3-methylpentanoic acid] | 41.1 | 37.1 | 79.6 |
| CC[C@@H](C)[C@H](NC(=O)Cn1cccc(NC(=O)[C@H](CC/C=C/C(=O)OC)NC(=O)c2ccccc2)c1=O)C(=O)O [A61, (2S,3R)-2-(2-(3-((S,E)-2-benzamido-7-methoxy-7-oxohept-5-enamido)-2-oxopyridin-1(2H)-yl)acetamido)-3-methylpentanoic acid] | 17.6 | 15.3 | 63.4 |
| CCC(CC)CNC(=O)Cn1cccc(NC(=O)[C@H](CC/C=C/C(=O)OC)NC(=O)c2cncn2C)c1=O [A63, (S,E)-Methyl 7-(1-(2-(2-ethylbutylamino)-2-oxoethyl)-2-oxo-1,2-dihydropyridin-3-ylamino)-6-(1-methyl-1H-imidazole-5-carboxamido)-7-oxohept-2-enoate] | 73.9 | 51.8 | 89 |
| CC[C@@H](C)[C@H](NC(=O)Cn1cccc(NC(=O)[C@H](CC/C=C/C(=O)OC)NC(=O)c2cncn2C)c1=O)C(=O)O [A60, (2S,3R)-2-(2-(3-((S,E)-7-Methoxy-2-(1-methyl-1H-imidazole-5-carboxamido)-7-oxohept-5-enamido)-2-oxopyridin-1(2H)-yl)acetamido)-3-methylpentanoic acid] | 42.3 | 31.1 | 73.2 |
| COC(=O)/C=C/CC[C@H](NC(C)=O)C(=O)Nc1cccn(CC(=O)N2CCCC(C)C2)c1=O (stereo partly drawn) [A64, (6S,E)-Methyl 6-acetamido-7-(1-(2-(3-methylpipendin-1-yl)-2-oxoethyl)-2-oxo-1,2-dihydropyridin-3-ylamino)-7-oxohept-2-enoate] | 125 | 122 | 120 |
| CCOC(=O)/C=C/CC[C@H](NC(=O)c1cncn1C)C(=O)Nc1cccn(CC(=O)N[C@H](C(=O)O)[C@H](C)CC)c1=O [A53, (2S,3R)-2-(2-(3-((S,E)-7-Ethoxy-2-(1-methyl-1H-imidazole-5-carboxamido)-7-oxohept-5-enamido)-2-oxopyridin-1(2H)-yl)acetamido)-3-methylpentanoic acid] | 72.6 | 68.9 | 77.7 |
